Data set [1] deals with Plasmodium falciparum W2 (chloroquine/pyrimethamine resistant). More on the design: method as in Pesic et al. ([2012]). Conditions: 72 h of incubation; ref Pesic et al. ([2012]); cited from earlier work.
Data set [2] relates to Plasmodium falciparum 3D7A (sensitive). More on the design: method as in Pesic et al. ([2012]). Conditions: 72 h of incubation; ref Pesic et al. ([2012]); cited from earlier work.
Data set [3] in a line: Pharmacokinetic studies in rats. The data set is classed as in vivo, Sprague–Dawley rats. Particulars: Rat; for half-life / clearance / Vd / bioavailability: male, Sprague-Dawley, whole blood; for half-life: intravenous; for clearance / Vd: iv; for clearance: blood; for Vd: read-out: Vss; for bioavailability: po. As to the method: For the in vivo pharmacokinetic study, compound 1 was dosed i.v. at 5 mg·kg^−1 (5 ml·kg^−1 dosing volume) and p.o. at a dose of 25 mg·kg^−1 (10 ml·kg^−1) to male Sprague–Dawley rats (Charles River, France), weighing ~350 g. Compounds 2 and 3 were dosed i.v. at 2 mg·kg^−1 (5 ml·kg^−1 dosing volume) and p.o. at a dose of 10 mg·kg^−1 (10 ml·kg^−1). Rats were fasted for 6–12 h (overnight fasting) prior oral administration. For serial blood sampling, rats (n = 3) dosed with an i.v. bolus of compound had blood collected at the following time points after dosing: 5, 10, 20 40, 60, 120, 240, 480, 1,440, and 1,800 min. Rats (n = 3) dosed orally had blood collected at the following time points after dosing: 15, 30, 60, 120, 240, 360, 480, 1,440, and 1,800 min.
Dosing solutions were prepared in 100% saline both for i.v. and p.o. After both routes of administration, blood samples were collected from the tail vein up to 30 h, haemolysed, and frozen until analysis. […] Subsequently, samples were assayed as described for mouse PK.

Data set [4] deals with panel of five bacterial strains. Put plainly: Antibacterial screen, summary over panel of five bacterial strains. The data set is classed as cell-based. As to the method:
Antibacterial activity of compounds was determined by a standard broth microdilution method (Clinical Laboratory Standard Institute CLSI, [2009]), except that for Streptococcus strains lysed blood was substituted with 5% horse serum in the testing medium. Azithromycin and chloroquine were used as controls. The activities are expressed as minimum inhibitory concentrations (MICs) in units of μg·ml^−1. The compounds have been tested in at least two and up to five independent experiments generating same or similar results (a range of one to two dilutions between tests was considered acceptable which is in accordance to CLSI acceptable quality control ranges). The organisms tested represented macrolide sensitive Gram‐positive pathogens that are mainly targeted by macrolide antibiotics. Tested streptococci were clinical isolates Streptococcus pneumoniae SP030 and Streptococcus pyogenes 3565 from internal strain collection, and other strains were obtained from ATCC bioresource centre, Staphylococcus aureus ATCC13709, Haemophilus influenzae ATCC49247, and Moraxella catarrhalis ATCC23246. Double dilutions of tested compounds were prepared using TECAN Genesis 150. Bacteria were grown on appropriate agar plates (Becton Dickinson, USA)—Columbia agar with 5% sheep blood for streptococci and M. catarrhalis, Mueller‐Hinton chocolate agar for H. influenzae , and Mueller‐Hinton agar for staphylococci.

Data set [5] relates to Plasmodium falciparum W2 (chloroquine/pyrimethamine resistant). Briefly: [3H]hypoxanthine incorporation antimalarial assay, strain W2. The class given is cell-based. Conditions: W2, 72 h, read-out: Plasmodium falciparum IC50 W2. As to the method: (§1) The activity of the test compounds against P. falciparum in vitro was determined using the tritiated hypoxanthine incorporation assay of Desjardins et al. and additionally modified by Milhous and Chulay (Chulay, Haynes, & Diggs, [1983]; Milhous, Weatherly, Bowdre, & Desjardins, [1985]).
(§2) Compounds were dissolved in DMSO and subsequently diluted in the culture medium (RPMI 1640) supplemented with 10% v/v human plasma. Serial 1:2 drug dilutions were prepared in triplicate in microtitre plates. Culture medium supplemented with 10% v/v human plasma and type A Rhesus positive human erythrocytes infected with P. falciparum strains was added to yield a haematocrit of 3% and a parasitaemia of 0.25–0.55%. The plates were incubated at 37°C in a modular incubator flushed with a mixture of 5% oxygen, 3% carbon dioxide, and 92% nitrogen for 48 h, and then [^3H]hypoxanthine was added to give a final concentration of 12.5–16 μCi·ml^−1. After incubation for additional 24 h, particulate matter was harvested on fibreglass strips and hypoxanthine incorporation determined by scintillation spectrophotometry. […] Delayed death experiments were performed by this standard method but extending the incubation time with the drug up to 96 h.

For data set [6], the system named is bronchial smooth muscle cells (BSMC). Briefly: Accumulation and retention in human primary cells, BSMC. The data set is classed as in vitro ADME. Particulars: mean (SD). On the procedure: (§3) Accumulation and retention in human primary cells was determined as described in detail previously (Stepanic et al., [2011]). Briefly, normal human bronchial epithelial cells (NHBE, CC‐2541, Lonza), normal human lung fibroblasts (NHLF, CC‐2512, Lonza), and bronchial smooth muscle cells (BSMC, CC‐2576, Lonza) were cultivated according to the protocols of the suppliers. Human polymorphonuclear cells (PMN) and monocytes from healthy volunteers were isolated from buffy coats. Monocytes were isolated by negative selection on magnetic separator. Monocyte‐derived macrophages (MDM) were obtained by cultivating monocytes with 5 ng·ml^−1 rhGMCSF for 10 days. To determine compound accumulation cells were incubated with 3–10 μM of compounds in their corresponding culture medium for 3 h at 37°C in 5% CO2, washed, and lysed. To measure cellular retention of compounds, after being washed, drug‐loaded cells were incubated in fresh medium for 3 h, washed, and lysed. Compound concentrations were determined by HPLC–MS/MS analysis and expressed as % of azithromycin measurements.

The subject of data set [7] is Plasmodium falciparum 3D7A (sensitive). Briefly: [3H]hypoxanthine incorporation antimalarial assay, strain 3D7A. The data set is classed as cell-based. Conditions: 72 h of incubation, N = 3. On the procedure: as §1, §2
Data set [8] relates to normal human bronchial epithelium (NHBE). Briefly: Accumulation and retention in human primary cells, NHBE. The data set is classed as in vitro ADME. Particulars: mean (SD). As to the method:
as §3

Data set [9] has as its system monocyte derived macrophages (MDM). Briefly: Accumulation and retention in human primary cells, MDM. The data set is classed as in vitro ADME. Particulars: mean (SD). As to the method:
as §3

Data set [10] deals with normal human lung fibroblasts (NHLF). Briefly: Accumulation and retention in human primary cells, NHLF. The class given is in vitro ADME. Conditions: mean (SD). On the procedure: as §3
Data set [11] relates to Polymorphonuclear leukocytes (PMN). Put plainly: Accumulation and retention in human primary cells, PMN. Particulars: mean (SD). The class given is in vitro ADME. On the procedure:
as §3

The structures appear in SMILES notation. Read-outs that look alike come from different tables or passages of the source.

Turning to `CC[C@H]1OC(=O)[C@H](C)[C@@H](O[C@H]2C[C@@](C)(OC)[C@@H](O)[C@H](C)O2)[C@H](C)[C@@H](O[C@@H]2O[C@H](C)C[C@H](N(C)C)[C@H]2O)[C@](C)(O)C[C@@H](C)CN(C)[C@H](C)[C@@H](O)[C@]1(C)O` [Azithromycin, reference compound], the results for the IC50 in data set [1] and in data set [2] were 2680 nM and 11500 nM, respectively.

With `CC[C@H]1OC(=O)[C@H](C)[C@@H](O[C@H]2C[C@@](C)(OC)[C@@H](O)[C@H](C)O2)[C@H](C)[C@@H](O[C@@H]2O[C@H](C)C[C@H](N(C)C)[C@H]2O)[C@](C)(O)C[C@@H](C)CN(CCCNc2ccnc3cc(Cl)ccc23)[C@H](C)[C@@H](O)[C@]1(C)O` [Compound 1], in data set [3] (p.o. 25 mg·kg^−1, mean (SD)), the DNAUCPO is 169 (21) ng*h·ml^−1·mg^−1·kg^−1. In addition, the half-life in [3] (i.v. 5 mg·kg^−1 / p.o. 25 mg·kg^−1, mean (SD)) is 23.3 h. For the same compound, in data set [3] (i.v. 5 mg·kg^−1, mean (SD)), the clearance stood at 2.4 mL/min/kg. The Vd in data set [3] (i.v. 5 mg·kg^−1, mean (SD)) stood at 3.8 L/kg. The bioavailability in data set [3] (i.v. 5 mg·kg^−1, p.o. 25 mg·kg^−1, mean (SD)) stood at 2.3%. Moreover, the “antibacterial activity (in words)” value in data set [4] was “inhibited the growth of whole cell bacteria”. Further, the IC50 came to 27 nM in data set [5] and 20 nM in [7]. Moreover, the accumulation in data set [6] (3 h) is 148 (77) % azithromycin; in data set [8] (3 h), 162 (3) % azithromycin; in [9] (3 h) it was 118 (21) % azithromycin; in data set [10] (3 h), 100 (11) % azithromycin; in data set [11] (3 h), 127 (36) % azithromycin. Further, the retention was 118 (19) % azithromycin in data set [6] (3 h in fresh medium); 123 (11) % azithromycin in data set [8] (3 h in fresh medium); 94 (0) % azithromycin in data set [9] (3 h in fresh medium); 85 (3) % azithromycin in data set [10] (3 h in fresh medium); 101 (19) % azithromycin in data set [11] (3 h in fresh medium).

Regarding `CC[C@H]1OC(=O)[C@H](C)[C@@H](O)[C@H](C)[C@@H](O[C@@H]2O[C@H](C)C[C@H](N(C)C)[C@H]2OCCCNc2ccnc3ccccc23)[C@](C)(O)C[C@@H](C)CN[C@H](C)[C@@H](O)[C@]1(C)O` [Compound 3], the DNAUCPO in data set [3] (oral gavage 10 mg·kg^−1, mean (SD)) was 36.2 (29) ng*h·ml^−1·mg^−1·kg^−1. The compound further showed a half-life in data set [3] (i.v. 2 mg·kg^−1 / p.o. 10 mg·kg^−1, mean (SD)) of 18.8 h. For the same compound, in [3] (i.v. 2 mg·kg^−1, mean (SD)), the clearance came out at 4 mL/min/kg and the Vd turned out to be 6.3 L/kg. Besides, in data set [3] (i.v. 2 mg·kg^−1, p.o. 10 mg·kg^−1, mean (SD)), the bioavailability came out at 1%. For the same compound, the “antibacterial activity (in words)” value in [4] is “no antibacterial activity”. Further, the IC50 in [5] came out at 27 nM. For the same compound, in [7], half-maximal inhibition (IC50) required 20 nM.

What is called IC50 is the concentration at which inhibition is half-maximal. The half-life is the time needed for the level to fall by half in the phase considered. A lower half-life goes with fast loss. For orientation: clearance means a measure of how efficiently the substance is removed, as volume per time. A lower clearance goes with a low capacity for elimination. By bioavailability is commonly meant dose-corrected exposure relative to a reference, in per cent. Read a low bioavailability as little systemic uptake.

(Values after PMC9328652, “A novel class of fast‐acting antimalarial agents: Substituted 15‐membered azalides” (British Journal of Pharmacology, 2020).)
